In ChEMBL document CHEMBL3779887, “Robenidine Analogues as Gram-Positive Antibacterial Agents” (J Med Chem, 2016):
Converted amounts (≈) assume the structure as drawn. The source made the active and inactive calls. The rule behind the calls is not given here.

Assays:
Staphylococcus aureus [1] = test: Bactericidal activity against Methicillin-sensitive Staphylococcus aureus ATCC 29213 assessed as log reduction in bacterial cell number at 8 times MIC after 24 hrs by time-kill curve analysis; format: functional, organism-based
Staphylococcus aureus [2] = test: Antibacterial activity against Staphylococcus aureus ATCC 29213 after 20 to 24 hrs in presence of 2% heat inactivated bovine serum; format: functional
Staphylococcus aureus [3] = test: Bactericidal activity against methicillin-resistant Staphylococcus aureus clinical isolate after 24 and 48 hrs; format: functional
[4] = Selectivity index, ratio of GI50 for human HEL299 cells to MIC50 for methicillin-sensitive Staphylococcus aureus clinical isolate; format: functional, HEL 299
Staphylococcus aureus [5] = test: Bactericidal activity against methicillin-sensitive Staphylococcus aureus ATCC 29213 assessed as log reduction in bacterial cell number at 2 times MIC after 8 hrs by time-kill curve analysis; format: functional
Staphylococcus aureus [6] = test: Bactericidal activity against methicillin-sensitive Staphylococcus aureus clinical isolate USA300 assessed as log reduction in bacterial cell number at MIC after 8 hrs by time-kill curve analysis; format: functional
Staphylococcus aureus [7] = test: Ratio of MBC for methicillin-sensitive Staphylococcus aureus ATCC 49775 to MIC90 for methicillin-sensitive Staphylococcus aureus ATCC 49775; format: functional
Staphylococcus aureus [8] = test: Bactericidal activity against Methicillin-sensitive Staphylococcus aureus ATCC 29213 assessed as log reduction in bacterial cell number at 2 times MIC after 24 hrs by time kill curve analysis; format: functional, organism-based
Staphylococcus aureus [9] = test: Bactericidal activity against Methicillin-sensitive Staphylococcus aureus ATCC 29213 assessed as log reduction in bacterial cell number at 4 times MIC after 24 hrs by time kill curve analysis; format: functional, organism-based
Staphylococcus aureus [10] = test: Bactericidal activity against methicillin-sensitive Staphylococcus aureus ATCC 49775 after 24 and 48 hrs; format: functional
Escherichia coli [11] = test: Antibacterial activity against Escherichia coli ATCC 25922 after 20 to 24 hrs; format: functional
[12] = Cytotoxicity against human HepG2 cells after 24 hrs by WST-1 based colorimetric assay; format: cell-based
Staphylococcus aureus [13] = test: Ratio of MBC for methicillin-sensitive Staphylococcus aureus ATCC 29213 to MIC90 for methicillin-sensitive Staphylococcus aureus ATCC 29213; format: functional
Staphylococcus aureus [14] = test: Antibacterial activity against methicillin-sensitive Staphylococcus aureus ATCC 29213 after 20 to 24 hrs in presence of 50% heat inactivated bovine serum
Staphylococcus aureus [15] = test: Antibacterial activity against methicillin-resistant Staphylococcus aureus clinical isolate after 20 to 24 hrs; format: functional
[16] = Selectivity index, ratio of GI50 for human HepG2 cells to MIC50 for methicillin-resistant Staphylococcus aureus clinical isolate; format: functional
Staphylococcus aureus [17] = test: Antibacterial activity against methicillin-sensitive Staphylococcus aureus ATCC 49775 after 20 to 24 hrs; format: functional
Staphylococcus aureus [18] = test: Bactericidal activity against […] Staphylococcus aureus clinical isolate USA300 assessed as log reduction in bacterial cell number at 8 times MIC after 8 hrs by time-kill curve analysis; format: functional
Enterococcus = test: Antibacterial activity against vancomycin-resistant Enterococcus after 20 to 24 hrs; format: functional
Staphylococcus aureus [19] = test: Antibacterial activity against methicillin-sensitive Staphylococcus aureus ATCC 49775 after 20 to 24 hrs in presence of 50% heat inactivated bovine serum; format: functional
[20] = Toxicity in sheep erythrocytes assessed as hemolysis at 600 uM after 30 mins; format: cell-based, Ovis aries; details: erythrocyte, 0.5 h
Staphylococcus aureus [21] = test: Antibacterial activity against methicillin-sensitive Staphylococcus aureus ATCC 29213 after 20 to 24 hrs in presence of 50% heat inactivated bovine serum; remark: listed apart in the source
Staphylococcus aureus [22] = test: Antibacterial activity against methicillin-sensitive Staphylococcus aureus ATCC 29213 after 20 to 24 hrs in presence of 50% heat inactivated bovine serum; format: functional
Pseudomonas aeruginosa [23] = test: Ratio of MIC90 for Pseudomonas aeruginosa ATCC 27853 to MIC90 for Pseudomonas aeruginosa ATCC 27853 in presence of polymyxin B nonapeptide; format: functional
Staphylococcus aureus [24] = test: Bactericidal activity against methicillin-sensitive Staphylococcus aureus ATCC 6538 after 24 and 48 hrs; format: functional
Staphylococcus aureus [25] = test: Ratio of MBC for methicillin-sensitive Staphylococcus aureus ATCC 25923 to MIC90 for methicillin-sensitive Staphylococcus aureus ATCC 25923; format: functional
[26] = Selectivity index, ratio of GI50 for human HEL299 cells to MIC50 for methicillin-resistant Staphylococcus aureus clinical isolate; format: functional, HEL 299
Staphylococcus aureus [27] = test: Bactericidal activity against methicillin-sensitive Staphylococcus aureus ATCC 25923 after 24 and 48 hrs; format: functional
Staphylococcus aureus [28] = test: Antibacterial activity against methicillin-sensitive Staphylococcus aureus ATCC 25923 after 20 to 24 hrs; format: functional
Staphylococcus aureus [29] = test: Ratio of MBC for methicillin-sensitive Staphylococcus aureus ATCC 6538 to MIC90 for methicillin-sensitive Staphylococcus aureus ATCC 6538; format: functional
Staphylococcus aureus [30] = test: Bactericidal activity against […] Staphylococcus aureus clinical isolate USA300 assessed as log reduction in bacterial cell number at 2 times MIC after 24 hrs by time-kill curve analysis; format: functional, organism-based
Staphylococcus aureus [31] = test: Antibacterial activity against methicillin-resistant Staphylococcus aureus after 20 to 24 hrs; format: functional
Staphylococcus aureus [32] = test: Antibacterial activity against methicillin-sensitive Staphylococcus aureus ATCC 6538 after 20 to 24 hrs in presence of 50% heat inactivated bovine serum; format: functional
Staphylococcus aureus [33] = test: Bactericidal activity against […] Staphylococcus aureus clinical isolate USA300 assessed as log reduction in bacterial cell number at 8 times MIC after 24 hrs by time-kill curve analysis; format: functional, organism-based
[34] = Selectivity index, ratio of GI50 for human HepG2 cells to MIC50 for methicillin-sensitive Staphylococcus aureus clinical isolate; format: functional
[35] = Cytotoxicity against human HEL299 cells after 24 hrs by WST-1 based colorimetric assay; format: cell-based, HEL 299
Staphylococcus aureus [36] = test: Bactericidal activity against […] Staphylococcus aureus clinical isolate USA300 assessed as log reduction in bacterial cell number at 4 times MIC after 24 hrs by time-kill curve analysis; format: functional, organism-based
Staphylococcus aureus [37] = test: Antibacterial activity against methicillin-sensitive Staphylococcus aureus ATCC 6538 after 20 to 24 hrs; format: functional
Staphylococcus aureus [38] = test: Bactericidal activity against […] Staphylococcus aureus clinical isolate USA300 assessed as log reduction in bacterial cell number at 2 times MIC after 8 hrs by time-kill curve analysis; format: functional
Staphylococcus aureus [39] = test: Bactericidal activity against […] Staphylococcus aureus clinical isolate USA300 assessed as log reduction in bacterial cell number at MIC after 24 hrs by time-kill curve analysis; format: functional, organism-based
Staphylococcus aureus [40] = test: Bactericidal activity against methicillin-sensitive Staphylococcus aureus ATCC 29213 after 24 and 48 hrs; format: functional
Staphylococcus aureus [41] = test: Bactericidal activity against […] Staphylococcus aureus clinical isolate USA300 assessed as log reduction in bacterial cell number at 4 times MIC after 8 hrs by time-kill curve analysis; format: functional
Staphylococcus aureus [42] = test: Bactericidal activity against Methicillin-sensitive Staphylococcus aureus ATCC 29213 assessed as log reduction in bacterial cell number at MIC after 8 hrs by time kill curve analysis
Escherichia coli [43] = test: Ratio of MIC90 for Escherichia coli ATCC 25922 to MIC90 for Escherichia coli ATCC 25922 in presence of polymyxin B nonapeptide; format: functional
Staphylococcus aureus [44] = test: Bactericidal activity against methicillin-sensitive Staphylococcus aureus ATCC 29213 assessed as log reduction in bacterial cell number at 8 times MIC after 8 hrs by time-kill curve analysis; format: functional
Staphylococcus aureus [45] = test: Bactericidal activity against methicillin-sensitive Staphylococcus aureus ATCC 29213 assessed as log reduction in bacterial cell number at 4 times MIC after 8 hrs by time-kill curve analysis; format: functional
Pseudomonas aeruginosa [46] = test: Antibacterial activity against Pseudomonas aeruginosa ATCC 27853 after 20 to 24 hrs in presence of polymyxin B nonapeptide; format: functional
Escherichia coli [47] = test: Antibacterial activity against Escherichia coli ATCC 25922 after 20 to 24 hrs in presence of polymyxin B nonapeptide; format: functional
Staphylococcus aureus [48] = test: Bactericidal activity against methicillin-sensitive Staphylococcus aureus ATCC 29213 assessed as log reduction in bacterial cell number at MIC after 8 hrs by time-kill curve analysis; format: functional
Staphylococcus aureus [49] = test: Antibacterial activity against methicillin-sensitive Staphylococcus aureus ATCC 29213 after 20 to 24 hrs; format: functional
Pseudomonas aeruginosa [50] = test: Antibacterial activity against Pseudomonas aeruginosa ATCC 27853 after 20 to 24 hrs; format: functional

Structure (SMILES): C/C(=N\NC(=N)N/N=C(\C)c1ccc(Cl)cc1)c1ccc(Cl)cc1
- Activity (Staphylococcus aureus [1]): inactive
- MIC90 (Staphylococcus aureus [2]): 10 µM
- MBC (Staphylococcus aureus [3]): 2.5 µM (≈ 0.906 µg/mL)
- Selectivity Index [4]: 2
- Activity (Staphylococcus aureus [5]): >=4 log10CFU/ml
- Activity (Staphylococcus aureus [6]): >=4 log10CFU/ml
- Ratio (Staphylococcus aureus [7]): 1
- Activity (Staphylococcus aureus [8]): inactive
- Activity (Staphylococcus aureus [9]): inactive
- MBC (Staphylococcus aureus [10]): 2.5 µM (≈ 0.906 µg/mL)
- MIC90 (Escherichia coli [11]): > 250 µM
- GI50 at 24 h [12]: 13.8 µM
- Ratio (Staphylococcus aureus [13]): 1
- MIC90 (Staphylococcus aureus [14]): > 250 µM
- MIC90 (Staphylococcus aureus [15]): 1.3 µM (≈ 0.471 µg/mL)
- Selectivity Index [16]: 2
- MIC90 (Staphylococcus aureus [17]): 1.3 µM (≈ 0.471 µg/mL)
- Activity (Staphylococcus aureus [18]): >=4 log10CFU/ml
- MIC (Enterococcus): 3.8 µM (≈ 1.38 µg/mL)
- MIC90 (Staphylococcus aureus [19]): > 250 µM
- Activity [20]: Non-toxic
- MIC90 (Staphylococcus aureus [21]): > 250 µM
- MIC90 (Staphylococcus aureus [22]): > 250 µM
- Ratio (Pseudomonas aeruginosa [23]): 10
- MBC (Staphylococcus aureus [24]): 2.5 µM (≈ 0.906 µg/mL)
- Ratio (Staphylococcus aureus [25]): 1
- Selectivity Index [26]: 2
- MBC (Staphylococcus aureus [27]): 2.5 µM (≈ 0.906 µg/mL)
- MIC90 (Staphylococcus aureus [28]): 1.3 µM (≈ 0.471 µg/mL)
- Ratio (Staphylococcus aureus [29]): 1
- Activity (Staphylococcus aureus [30]): inactive
- MIC (Staphylococcus aureus [31]): 7.5 µM (≈ 2.72 µg/mL)
- MIC90 (Staphylococcus aureus [32]): > 250 µM
- Activity (Staphylococcus aureus [33]): inactive
- Selectivity Index [34]: 2
- GI50 at 24 h [35]: 6.7 µM
- Activity (Staphylococcus aureus [36]): inactive
- MIC90 (Staphylococcus aureus [37]): 1.3 µM (≈ 0.471 µg/mL)
- Activity (Staphylococcus aureus [38]): >=4 log10CFU/ml
- Activity (Staphylococcus aureus [39]): inactive
- MBC (Staphylococcus aureus [40]): 2.5 µM (≈ 0.906 µg/mL)
- Activity (Staphylococcus aureus [41]): >=4 log10CFU/ml
- Activity (Staphylococcus aureus [42]): inactive
- Ratio (Escherichia coli [43]): 10
- Activity (Staphylococcus aureus [44]): >=4 log10CFU/ml
- Activity (Staphylococcus aureus [45]): >=4 log10CFU/ml
- MIC90 (Pseudomonas aeruginosa [46]): 5 µM
- MIC90 (Escherichia coli [47]): 10 µM
- Activity (Staphylococcus aureus [48]): >=4 log10CFU/ml
- MIC90 (Staphylococcus aureus [49]): 1.3 µM (≈ 0.471 µg/mL)
- MIC90 (Pseudomonas aeruginosa [50]): > 250 µM
